Format in all cases: cell-based
Experiment [1] has as its system hepatocellular carcinoma (SKHep1). Put plainly: In vitro anticancer assay (MTT), SKHep1. The following applies: SKHep1 cells, 48 hrs, mean ± spread, read-out: Anti-proliferative evaluation IC50, SKHep1. Put shortly:
(§1)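 MTT viability assay read at 570 nm, with formazan dissolved in DMSO. Growth was expressed as percent of control, (Abtreated/Abcontrol)×100, using mean absorbance (n=3).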

In experiment [2] the test system is esophageal carcinoma (CE81T). Put plainly: In vitro anticancer assay (MTT), CE81T. Conditions: CE81T cells, 48 hrs, mean ± spread, read-out: Anti-proliferative evaluation IC50, CE81T. In short, it runs like this:
as §1

Experiment [3] has as its system human stomach adenocarcinoma (AGS). Put plainly: In vitro anticancer assay (MTT), AGS. The following applies: AGS cells, 48 hrs, mean ± spread, read-out: Anti-proliferative evaluation IC50, AGS. In short, it runs like this: as §1
Experiment [4] relates to human cervical epithelioid carcinoma (HeLa). Put plainly: In vitro anticancer assay (MTT), HeLa. Conditions: HeLa cells, 48 hrs, mean ± spread, read-out: Anti-proliferative evaluation IC50, HeLa. Put shortly: as §1
The next experiment has as its system cancer cells. Put plainly: In vitro anticancer assay, summary over the six cancer cells. The following applies: summary of Table 2. The protocol: Six cancer cells, i.e., cells of human cervical epithelioid carcinoma (HeLa), hepatocellular carcinoma (SKHep1), oral squamous cell carcinoma (SAS), human stomach adenocarcinoma (AGS), human renal clear cell carcinoma (RCC 768-O) and esophageal carcinoma (CE81T), were treated with the selected compounds as indicated for 48 hrs in a medium containing 10% FBS (3-[4,5-Dimethylthiazol-2-yl]-2,5-diphenyltetrazolium bromide (MTT, 2 mg/mL, […]) was added to the cultures and incubated during the final 1.5 hrs. The resultant tetrazolium salt was then dissolved by the addition of dimethyl sulfoxide. Color was measured spectrophotometrically in a microtiter plate reader at 570 nm and used as a relative measure of viable cell number. The number of viable cells after treatment was compared to solvent and untreated control cells and used to determine the percent of control growth as (Abtreated/Abcontrol)×100, where Ab represents the mean absorbance (n=3). The concentration that killed 50% of cells (IC50) was determined from the linear portion of the curve by calculating the concentration of agent that reduced absorbance in treated cells, as compared to control cells, by 50% (S. D. Heo et al. (1990), Cancer Res., 50:3681-3690). (+)-camptothecin (CPT) and doxorubicin hydrochloride (Dox) were used for comparison with the compounds according to this invention.

Experiment [5] relates to human renal clear cell carcinoma. Put plainly: In vitro anticancer assay (MTT), RCC 768-O. The following applies: RCC 768-O cells, 48 hrs, mean ± spread, read-out: Anti-proliferative evaluation IC50, RCC 768-O. In short, it runs like this: as §1
Experiment [6] has as its system oral squamous cell carcinoma (SAS). Put plainly: In vitro anticancer assay (MTT), SAS. The following applies: SAS cells, 48 hrs, mean ± spread, read-out: Anti-proliferative evaluation IC50, SAS. In short, it runs like this: as §1

The term IC50 denotes the midpoint of a concentration-inhibition curve. Regarding `COc1cccc2c1C(=O)c1c-2c(N2CCNCC2)nc2ccccc12` [Compound 5bb], the IC50 in experiment [1] is 0.7 ± 0.3 µM; in experiment [2], 4.9 ± 1.5 µM; in experiment [3] it was 4.1 ± 1.2 µM; in experiment [4], 0.4 ± 0.1 µM; in experiment [5] it was 1.7 ± 0.5 µM; in experiment [6], 5.1 ± 0.8 µM. Moreover, the “anticancer activity (in words)” value in the experiment with cancer cells is “broad and potent anticancer activity”.

Source of the values: patent US7829567B2, “Imino-indeno[1,2-c] quinoline derivatives, their preparation processes, and pharmaceutical compositions comprising the same” (Kaohsiung Medical University, priority 2007, dated 2010).
